Assay results from patent publication US20250295668A1, “METHODS FOR INDUCING COLANIC ACID BIOSYNTHESIS” (priority 2024, published 2025).
In brackets after ≈: the same amount, converted by molar mass. Several values for one entry are separate records, joined by “and”; a condition that tells them apart may be missing. Equal entries are not always repeated. Entries after “also recorded” stand apart in the source; their conditions may differ. Where two headings read alike, the source gives them in different places.

Key:
wildtype E. coli = assay: Colanic acid measurement (fucose quantification) in wildtype E. coli culture medium; type: cell-based
Procedure: For colanic acid quantification, E. coli Keio mutants and the parental strain BW25113 were cultured overnight at 37° C. in M9 minimum medium [PMID: 28436966]. Bacteria were then removed by centrifugation and filtered for colanic acid measurement.
The desired bacterial strain was first inoculated and cultured in M9 minimum medium overnight at 37° C. to obtain the seeding culture. The OD 600 was measured, and the seeding bacteria were diluted to OD600=0.02 in M9 minimum medium for another 16 hours. After the incubation, bacterial cultures were collected in 50 mL tubes, spun down at 4,000 g at 4° C. for 30 min, filtered, and 25 mL of supernatant was collected per 50 ml conical tube. Ice-cold 100% ethanol (EtOH) was added to make a final 50% EtOH solution for precipitation, and the mixture was kept at 4° C. overnight. Once precipitation occurred, the liquid was carefully removed after centrifugation at 4,000 g at 4° C. for 50 min. The pellet was washed once with cold 80% EtOH and then air-dried in a hood. The pellet from every 50 mL culture was resuspended in 500 μL distilled H2O. The solution was sonicated for 60 minutes at 37° C., followed by centrifugation at 4000 g at 4° C. for 10 minutes. A 200 μL sample was mixed with 30 μL hydrochloric acid (320331-500 mL, Sigma-Aldrich) and boiled for 2 hours. Subsequently, 60 μL 5M NaOH and 150 μL NaHCO3/NaOH buffer were added to reach a pH of 6-8, calibrated by 1M HCl or NaOH solutions. The fucose quantification assay was then carried out using a K-FUCOSE kit (Megazyme) according to the manufacturer's protocol.
Next, colanic acid in the bacteria culture medium was quantified via monosaccharide-fucose-from acid-hydrolyzed polysaccharide precipitates. […] Calculations were performed to determine the equivalent dosage by weight in a mammalian subject. Briefly, a typical mouse consumes 5-10 ml of water per day and weighs between 30-40 g. Using the 1.8 μg/mL concentration, a lower bound of 0.225 mg/kg (0.0018 mg/mL×5 ml[…]0.04 kg) and a higher bound of 0.6 mg/kg (0.0018 mg/mL×10 ml÷0.03 kg) were identified. […] In wild-type bacteria treated with cephaloridine and Alon E. coli mutants colanic acid production increased during the exponential growth phase and remained elevated in the stationary phase (FIG. 1D).

C. elegans = C. elegans lifespan assay on antibiotic-treated E. coli; type: in vivo, Caenorhabditis elegans
Procedure: For longitudinal assays, E. coli Keio mutants were initially cultivated in M9 minimum medium at 37° C. for 16 hours. Subsequently, bacteria at stationary phase were reinoculated in fresh M9 medium with a low dose of cephaloridine at 37° C. for another 16 hours. A 100 μL aliquot of the bacteria culture was seeded onto each 6-cm NGM plate and maintained at 20° C. Fresh bacteria plates were prepared every other day for transfer to alive worms. Caenorhabditis elegans var. Bristol N2 strain was obtained from the Caenorhabditis Genome Center. The strain was maintained on standard nematode growth medium (NGM) agar plates seeded with corresponding bacteria at 20° C. Age synchronization of C. elegans was achieved by isolating eggs as previously described [PMID: 4858229]. Lifespan assays were performed as previously described [PMID: 25554789]. In brief, age-synchronized C. elegans at the L1 stage were seeded onto designated bacteria lawns. Fresh bacteria-containing plates were made every other day for live C. elegans transfer. Once reaching adulthood as Day 0, worms were transferred to new bacteria plates. Death events were scored upon each transfer. Bagged worms and vulva protruding worms were censored throughout the analysis. Each assay contained 80-100 animals with 30-40 animals per 6 cm plate.

cps promoter = assay: cps G-R reporter bacteria imaging in vitro (GFP-to-RFP ratio); type: cell-based, E. coli; details: low-dose cephaloridine, cultured at 37° C.
Procedure: For high-resolution imaging, rph1 ilvG rfb-50 attL (Psyn135::mcherry <FRT>) attHKPR218 (cps G-R reporter strain), a genetically modified strain derived from MG1655 (genotype rph1 ilvG rfb-50), was generated. pPR218, integrated at the HK site, encodes Pcps::sfGFP and chloramphenicol resistance.
In vitro imaging: The cps G-R reporter strain was cultured in M9 minimal medium. Bacteria culture was harvested at an OD600 of 0.6. For bacteria imaging, 1 μL of the culture was loaded onto a 1% low-melt agarose pad made with M9 medium [PMID: 23680982].
MG1655, a human-derived commensal K12 strain, was treated with a low dose of cephaloridine at 37° C., which induced colanic acid production (FIG. 3A). […] To determine whether cephaloridine activates cps expression in a commensal bacterium in a mammalian host, MG1655 was engineered as shown in FIG. 3C to express GFP under the control of the cps promoter and to constitutively express RFP under a synthetic promoter syn135, resulting in the cps G-R reporter strain. […] The luminal content of mice ileum was harvested after 3 hours of cephaloridine administration and were imaged for fluorescence. […]

[1] = system: cps operon in commensal E. coli; assay: cps G-R reporter bacteria from mouse ileum, in vivo imaging (GFP-to-RFP ratio); design: species or system C57BL6 mice; details: for increase in GFP-to-RFP ratio: oral gavage plus drinking water, 3 hours, ileum
Procedure: In vivo imaging: Co-housed female C57BL6 mice received cps G-R reporter E. coli at 1×10^8 CFU per 100 mL through distilled drinking water. The bacteria-containing water was prepared and replaced daily for three days continuously. […] Luminal content from the ileum was collected and processed for imaging bacteria from in vivo samples immediately after euthanasia as previously described [PMID: 34428120]. In brief, the ileum sections were collected and then finely minced by a pair of iris scissors in 2 mL 1×PBS. Samples were then vortexed for 1 minute and filtered with a sterile cell strainer (40 μm) to remove the tissue debris. The microbiota was washed 3 times with 1.5 mL PBS by centrifugation (15,000×g, 3 min) and then resuspended in 0.1 mL PBS for imaging.
The cps G-R reporter strain was introduced to wild-type C57B6 mice through drinking water, followed by cephaloridine administration through a single-dose oral gavage and cephaloridine-containing water for 3 hours, which allowed for sufficient intestinal transit time [PMID: 23915679] and E. coli turnover time [PMID: 26392213] for optimal dosing (FIG. 3E). […] The luminal content of mice ileum was harvested after 3 hours of cephaloridine administration and were imaged for fluorescence.

E. coli = details: previously reported, cited from earlier work
[2] = PMID 9165537; cited from earlier work

O=C(Cc1cccs1)N[C@@H]1C(=O)N2C(C(=O)[O-])=C(C[n+]3ccccc3)CS[C@H]12 [cephaloridine]
colanic acid production vs untreated wildtype control (wildtype E. coli; cephaloridine 1.8 μg/mL, 37° C.): 6 fold | optimal concentration for inducing colanic acid biosynthesis (wildtype E. coli; range of doses below MIC): 1.8 μg/mL and 4.3 μM | C. elegans lifespan extension vs vehicle (C. elegans; MG1655 E. coli treated with 1.8 μg/mL): 13% and 13.3% | C. elegans lifespan (C. elegans; cephaloridine-treated rcsA deletion mutant E. coli): failed to extend lifespan | C. elegans lifespan (C. elegans; cephaloridine-treated rcsD deletion mutant E. coli): effectively promoted longevity | C. elegans lifespan extension vs vehicle (C. elegans; wildtype E. coli treated with 1.8 μg/mL): 14% | increase in GFP-to-RFP intensity ratio (cps promoter): 20% | cps operon induction in the mouse intestine ([1]; 4 μg/mL dose): induced the cps operon | increase in GFP-to-RFP ratio ([1]; 4 μg/mL): 13% | cps operon induction in the mouse intestine ([1]; 8 μg/mL dose): failed to exert this effect | increase in GFP-to-RFP ratio ([1]; 8 μg/mL): no such increase | MIC (E. coli; PMID 380457): 2 µg/mL (≈ 4.81 µM) | MIC (E. coli; PMID 9371340): 4 µg/mL (≈ 9.63 µM) | absorption after oral administration [2]: poorly absorbed; also recorded: near-zero absorption | oral bioavailability [2]: extremely low oral bioavailability
